Data from the NIST ThermoML archive (doi:10.1016/j.fluid.2007.11.005).
± gives the expanded uncertainty stated by the source.

Conditions: Liquid, Bellows volumetry

CCCCn1cc[n+](C)c1.F[B-](F)(F)F [1-butyl-3-methylimidazolium tetrafluoroborate]
mass density [kg/m3]
Conditions	313.1 K	332.6 K	352.6 K	372.7 K	392.8 K
100 kPa	1191 ± 3	–	–	–	–
10000 kPa	1195 ± 3	1182 ± 3	1168 ± 3	1155 ± 3	1142 ± 3
20000 kPa	1200 ± 3	1186 ± 3	1173 ± 3	1160 ± 3	1148 ± 3
30000 kPa	1204 ± 3	1191 ± 3	1178 ± 3	1165 ± 3	1153 ± 3
40000 kPa	1208 ± 3	1195 ± 3	1182 ± 3	1170 ± 3	1158 ± 3
50000 kPa	1212 ± 3	1200 ± 3	1187 ± 3	1174 ± 3	1163 ± 3
60000 kPa	1216 ± 3	1204 ± 3	1191 ± 3	1179 ± 3	1167 ± 3
70000 kPa	1220 ± 3	1208 ± 3	1195 ± 3	1183 ± 3	1172 ± 3
80000 kPa	1224 ± 3	1212 ± 3	1199 ± 3	1187 ± 3	1176 ± 3
90000 kPa	1227 ± 3	1215 ± 3	1203 ± 3	1191 ± 3	1180 ± 3
100000 kPa	1231 ± 3	1219 ± 3	1207 ± 3	1195 ± 3	–
110000 kPa	1234 ± 3	1223 ± 3	1211 ± 3	1199 ± 3	–
120000 kPa	1238 ± 3	1226 ± 3	1214 ± 3	1203 ± 3	–
130000 kPa	1241 ± 3	1229 ± 3	1218 ± 3	1206 ± 3	–
140000 kPa	1244 ± 3	1233 ± 3	1221 ± 3	1210 ± 3	–
150000 kPa	1248 ± 3	1236 ± 3	1225 ± 3	1213 ± 3	–
160000 kPa	1251 ± 3	1239 ± 3	1228 ± 3	1217 ± 3	–
170000 kPa	1254 ± 3	1243 ± 3	1231 ± 3	1220 ± 3	–
180000 kPa	1257 ± 3	1246 ± 3	1234 ± 3	1223 ± 3	–
190000 kPa	1260 ± 3	1249 ± 3	1237 ± 3	1227 ± 3	–
200000 kPa	1263 ± 3	1252 ± 3	1241 ± 3	1230 ± 3	–
